Bounds are passed on as bounds.

Assay [1] concerns the target purified human, His-tagged PRC2 complex (Homo sapiens (Human), UniProt O75530). Kind of assay: Hot Spot HMT assay of PRC2 enzymatic activity (tritiated methyl transfer from SAM to core histone). Format: biochemical. The note with it: 10 nM purified PRC2 complex, 0.05 mg/ml core histone H3, 1 uM 3H-SAM, 1 hr at 30° C.; read-out: IC50, Inhibition of PRC2-mediated Enzymatic Activity. How it is done:
Ten-point dose-response curves for compounds of the present invention were determined using a Hot Spot HMT assay (Reaction Biology Corp; see Horiuchi et al., Assay Drug Dev Technol. (2013) 4: 227-236 doi: 10.1089/adt.2012.480). The assay uses purified human, His-tagged PRC2 complex, including N-terminal His-tagged EZH2 enzyme, N-terminal Flag-tagged embryonic ectoderm development protein (EED), N-terminal His-tagged suppressor of zeste 12 (SUZ12), N-terminal His-tagged AEBP2, and N-terminal His-tagged RbAp48. In this assay, the transfer of the tritiated methyl group from radiolabeled S-adenosyl methionine (SAM) to purified core histone protein by EZH2 is quantitated after filtration to determine the activity of the core PRC2 complex in the presence and absence of compound.
Briefly, compounds of the present invention were solubilized in DMSO and a series of 10, three-fold serial dilutions were made for each compound in 15% DMSO. The initial starting concentration for the serial dilutions of each compound was 1.0 μM. Control samples lacking compound, EZH2 enzyme or various reaction components also were prepared and processed in parallel with compound test samples. SAH (S-(5-adenosyl)-L-homocysteine) was used as a positive control for assay validation.
An aliquot of each serial dilution of test compound was added to deep 384 well plate using Acoustic Technology instrument (Echo 550, LabCyte) containing reaction buffer (50 mM Tris-HCl (pH 8.)), 0.01% Brij35, 1 mM EDTA, 1 mM DTT, 1 mM PMSF and 1% DMSO), 10 nM purified PRC2 complex and 0.05 mg/ml core histone H3 in a 5 μl volume. The reaction was mixed gently and then pre-incubated for 20 min at 30° C. The enzymatic reaction was initiated by adding 1 uM S-Adenosyl-L-[methyl ^3H]methionine and incubated for 1 hr at 30° C. After 1 hr, the reaction product was detected using a filter binding method and the amount of tritiated H3 core histone was quantitated using a scintillation counter. The IC50 value for each compound was determined from each 10-point dose-response curve using GraphPad Prism software and the results for exemplary compounds of Formula (I) are shown in Table 5. Key: A=≤250 nM; B=>250 nM—≤500 nM; and C=>500 nM—≤2 μM.

Assay [2] has as its system Karpas 422 cells expressing mutant EZH2 (Y641N). Nature of the assay: Karpas 422 cell viability (Cell Titre Glo) assay. The note with it: Homo sapiens, CTG viability, time point (Day 4, Day 7 or Day 11) not given, read-out: IC50, Inhibiting Proliferation of Cells Expressing an Activating Mutant Form of EZH2. The class given is cell-based, human. As for the experimental part:
Karpas 422 cell line is a human B cell non-Hodgkin's lymphoma cell line established from a patient having DLBCL. This EZH2 heterozygotic cell line expresses a mutant form of EZH2 enzyme (Y641N) that increases histone H3 methylation and this mutation has been implicated in the tumorgenesis of lymphomas, such as DLBCL.
Karpas 422 cells (PHE cat no., 06101702) were cultured in RPMI medium supplemented with 20% fetal bovine serum and 1% penicillin/1% streptomycin and plated at a density of 1000 cells/90 μl/well in 96 well white assay plates. A dose response curve for compounds of the present invention was determined by adding a 10 μl aliquot of stock solutions of varying concentrations of compounds to the same medium in each well, over a concentration range of 10 μM using 3-fold dilutions to a final concentration of 1.5 nM. The plates were incubated at 37° C. for predetermined time periods, Day 4, Day 7, or Day 11, and the viability of the cells was measured using a CTG assay kit (Cell Titre Glo; Promega cat. no G7573) on Day 4 and Day 7 in accordance with the manufacturer's instructions.
For the viability assay for the Day 11 plates, the plates were subjected to centrifugation at 1100 rpm for five minutes on Day 7 and the supernatant was removed by aspiration. The cells were resuspended in 90 μl aliquot of the appropriate growth medium lacking the compound followed by addition of 10 μl of a 10× stock of the same compound at the same concentration. The viability of the Day 11 cells was measured using the CTG assay kit described above in accordance with the manufacturer's instructions. The IC50 values for each compound at each predetermined time point were calculated using Graph pad PRISM software and the results are shown in Table 7. Key: A=≤250 nM; B=>250 nM-≤500 nM; C=>500 nM-≤5 μM and N.D.=not determined.

Assay [3] relates to PRC2-mediated histone H3 methylation (H3 Lys27 trimethylation) in Pfeiffer cells expressing mutant EZH2 (A677G). Nature of the assay: Tri-Methyl Histone H3 (Lys 27) sandwich ELISA in Pfeiffer cells. The class given is cell-based, human. The note with it: Homo sapiens; Pfeiffer cells, 96 hours incubation, ELISA; read-out: IC50, Inhibition of EZH2-mediated Histone H3 Trimethylation. The source says: The Pfeiffer cell line was established from a […] from a patient having metastatic diffuse large B-cell lymphoma (DLBCL). This cell line expresses a mutant form of the EZH2 enzyme (A677G) that results in enhanced EZH2 activity leading to increased methylation of histone H3 Lys27. Increased trimethylation of histone H3 Lys27 is believed to be implicated in tumorgenesis and poor clinical prognosis in lymphomas (McCabe et al., (2012) Nature 492:108-112).
Inhibition of PRC2-mediated histone H3 methylation by compounds of Formula (I) was measured by ELISA using a Tri-Methyl Histone H3 (Lys 27) Sandwich ELISA Kit (Cell Signaling Tech #7866C) in accordance with the manufacturer's instructions. Briefly, Pfeiffer cells were cultured in RPMI medium supplemented with 10% fetal bovine serum and 1% penicillin and 1% streptomycin in 96 well culture plates at 37° C. to a density of 8000 cells/90 μl/well and the cells were harvested. A series of 3-fold serial dilutions of each test compound of Formula (I) were prepared in RPMI medium and added to the cells at final concentrations ranging from 1 μM to 0.15 nM. The plates were incubated at 37° C. for 96 hours.
After incubation, the cells were pelleted by centrifugation in a pre-cooled 4° C. rotor at 1,100 rpm for 10 min and the supernatant was removed by aspiration. The cell pellet was resuspended in 55 μl of Lysis Buffer (0.4M HCl) and incubated on ice with periodic shaking for 30 minutes. The lysed cells were subjected to centrifugation at 4,200 rpm for 10 min at 4° C. and the supernatant containing acid-soluble proteins was collected and the remainder discarded. The acid-soluble proteins were brought to a neutral pH by the addition of 20 μl of Neutralization Buffer (1 M Sodium phosphate, dibasic (pH 12.5), 2.5 mM DTT and 1 mM PMSF) and the neutralized lysates were analyzed by ELISA.
A 65 μl aliquot of each cell lysate was added to a well of a microwell strip, the microwells were sealed using tape and incubated either at 37° C. for two hours or at 4° C. overnight. After incubation, the tape was removed at the microwells were washed four times using 200 μl of 1× Wash Buffer. To each washed microwell, a 100 μl aliquot of an anti-trimethyl histone H3 Lys27 Detection Antibody solution was added and the microwells were incubated at 37° C. for one hour. The Detection Antibody solution was removed by aspiration and the wells were washed four times each using 200 μl of 1× Wash Buffer.
A 100 μl aliquot of an HRP-linked secondary antibody was added to each well, the wells were sealed with tape and incubated at 37° C. for 30 min. The HRP-linked secondary antibody solution was removed by aspiration and the wells were washed four times using 200 μl of 1× Wash Buffer. A 100 μl aliquot of a TMB substrate was added to each well, the wells were sealed with tape and incubated at 37° C. for 10 min or 25° C. for 30 min. The reaction was stopped by the addition of 100 μl aliquot of a STOP solution and the plate was shaken briefly. The degree of histone H3 trimethylation was determined using a spectrophotometric readout by measuring the absorbance at 450 nm and then calculating the amount of trimethylated histone H3. Key: A=≤250 nM; B=>250 nM-≤500 nM; and C=>500 nM-≤5 μM.

purified human, His-tagged PRC2 complex, sequence (Q15910 whole entry): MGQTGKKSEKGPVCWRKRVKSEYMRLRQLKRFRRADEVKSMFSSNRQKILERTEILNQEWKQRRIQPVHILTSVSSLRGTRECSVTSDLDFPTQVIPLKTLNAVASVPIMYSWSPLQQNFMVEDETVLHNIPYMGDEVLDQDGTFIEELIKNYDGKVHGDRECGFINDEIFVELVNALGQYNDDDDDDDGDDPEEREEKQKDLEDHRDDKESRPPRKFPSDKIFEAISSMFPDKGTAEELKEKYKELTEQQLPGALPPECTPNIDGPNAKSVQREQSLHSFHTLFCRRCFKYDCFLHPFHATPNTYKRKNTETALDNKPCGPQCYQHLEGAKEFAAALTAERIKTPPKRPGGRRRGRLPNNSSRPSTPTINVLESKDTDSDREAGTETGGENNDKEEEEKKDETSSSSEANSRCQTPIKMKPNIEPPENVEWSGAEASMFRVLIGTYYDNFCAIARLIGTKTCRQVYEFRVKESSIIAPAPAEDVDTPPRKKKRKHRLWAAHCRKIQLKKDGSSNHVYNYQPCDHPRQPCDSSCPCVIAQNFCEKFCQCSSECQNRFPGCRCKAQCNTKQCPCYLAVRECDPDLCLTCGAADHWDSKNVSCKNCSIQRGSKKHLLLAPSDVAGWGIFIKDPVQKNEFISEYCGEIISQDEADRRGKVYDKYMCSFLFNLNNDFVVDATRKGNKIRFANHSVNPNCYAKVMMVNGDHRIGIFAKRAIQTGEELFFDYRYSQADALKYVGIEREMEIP
purified human, His-tagged PRC2 complex, sequence (O75530 whole entry): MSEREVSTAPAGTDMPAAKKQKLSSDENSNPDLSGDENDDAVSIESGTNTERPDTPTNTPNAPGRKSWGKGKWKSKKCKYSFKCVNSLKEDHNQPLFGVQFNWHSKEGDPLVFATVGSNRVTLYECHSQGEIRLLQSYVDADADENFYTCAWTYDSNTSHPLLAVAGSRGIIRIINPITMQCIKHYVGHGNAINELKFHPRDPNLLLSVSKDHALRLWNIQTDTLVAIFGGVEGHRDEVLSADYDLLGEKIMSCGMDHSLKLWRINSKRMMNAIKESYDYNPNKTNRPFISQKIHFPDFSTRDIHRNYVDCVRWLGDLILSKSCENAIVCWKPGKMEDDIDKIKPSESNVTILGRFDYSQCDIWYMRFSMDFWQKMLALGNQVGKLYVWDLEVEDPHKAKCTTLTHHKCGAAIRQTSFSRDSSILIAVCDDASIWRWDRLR
purified human, His-tagged PRC2 complex, sequence (Q15022 whole entry partner): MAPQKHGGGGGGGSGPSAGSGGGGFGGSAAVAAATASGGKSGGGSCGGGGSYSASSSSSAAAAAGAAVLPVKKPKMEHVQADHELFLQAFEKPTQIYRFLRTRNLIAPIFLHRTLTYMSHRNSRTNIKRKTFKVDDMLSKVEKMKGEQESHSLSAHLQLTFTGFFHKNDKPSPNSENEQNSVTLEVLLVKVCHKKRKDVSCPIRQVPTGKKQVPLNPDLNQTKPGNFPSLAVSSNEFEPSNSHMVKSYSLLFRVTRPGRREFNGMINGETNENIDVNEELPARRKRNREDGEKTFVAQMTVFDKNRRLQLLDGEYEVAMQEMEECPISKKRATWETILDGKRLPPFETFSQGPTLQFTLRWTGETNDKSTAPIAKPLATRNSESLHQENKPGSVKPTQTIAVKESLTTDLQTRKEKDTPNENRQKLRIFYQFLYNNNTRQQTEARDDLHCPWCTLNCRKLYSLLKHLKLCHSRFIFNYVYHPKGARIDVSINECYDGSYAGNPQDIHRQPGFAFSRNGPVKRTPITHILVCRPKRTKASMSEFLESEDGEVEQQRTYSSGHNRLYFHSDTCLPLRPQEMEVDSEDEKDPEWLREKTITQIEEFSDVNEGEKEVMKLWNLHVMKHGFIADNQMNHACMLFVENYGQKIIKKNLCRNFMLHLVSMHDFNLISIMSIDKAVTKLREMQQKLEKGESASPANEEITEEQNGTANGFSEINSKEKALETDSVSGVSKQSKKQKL
purified human, His-tagged PRC2 complex, sequence (Q6ZN18 whole entry partner): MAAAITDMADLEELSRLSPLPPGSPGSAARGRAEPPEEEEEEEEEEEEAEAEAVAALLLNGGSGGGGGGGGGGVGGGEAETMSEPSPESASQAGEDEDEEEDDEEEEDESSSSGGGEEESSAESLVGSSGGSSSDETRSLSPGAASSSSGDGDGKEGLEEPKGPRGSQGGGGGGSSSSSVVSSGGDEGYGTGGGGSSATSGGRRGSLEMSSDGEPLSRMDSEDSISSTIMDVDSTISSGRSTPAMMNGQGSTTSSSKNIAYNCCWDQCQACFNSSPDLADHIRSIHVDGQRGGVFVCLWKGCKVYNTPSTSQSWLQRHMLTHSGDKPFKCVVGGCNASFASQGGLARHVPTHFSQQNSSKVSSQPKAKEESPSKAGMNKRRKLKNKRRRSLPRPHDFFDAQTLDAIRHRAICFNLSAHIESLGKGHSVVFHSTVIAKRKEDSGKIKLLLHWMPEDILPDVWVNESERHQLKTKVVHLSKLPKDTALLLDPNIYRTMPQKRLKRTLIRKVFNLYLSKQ
purified human, His-tagged PRC2 complex, sequence (Q09028 whole entry partner): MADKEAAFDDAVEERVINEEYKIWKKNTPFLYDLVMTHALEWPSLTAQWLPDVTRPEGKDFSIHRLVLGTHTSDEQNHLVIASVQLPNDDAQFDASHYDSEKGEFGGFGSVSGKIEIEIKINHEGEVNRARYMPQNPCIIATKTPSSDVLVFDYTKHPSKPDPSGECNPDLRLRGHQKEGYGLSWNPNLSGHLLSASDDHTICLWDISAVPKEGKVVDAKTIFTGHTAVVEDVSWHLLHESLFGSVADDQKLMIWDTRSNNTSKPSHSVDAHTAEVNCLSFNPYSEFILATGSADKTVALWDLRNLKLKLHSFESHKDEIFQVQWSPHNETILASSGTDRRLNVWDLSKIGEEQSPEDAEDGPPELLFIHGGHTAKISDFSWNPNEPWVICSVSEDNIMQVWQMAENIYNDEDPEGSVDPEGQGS

As for `Cc1cc(-c2cnc(NCc3c(F)ccc4c3CCO4)n3cc(C(C)N)nc23)n(C)n1` (single isomer, unassigned) [Example 11, 2-(1-aminoethyl)-8-(1,3-dimethyl-1H-pyrazol-5-yl)-N-((5-fluoro-2,3-dihydrobenzofuran-4-yl)methyl)imidazo[1,2-c]pyrimidin-5-amine], the IC50 is 500 to 2000 nM in assay [1], less than 250 nM in assay [2] and less than 250 nM in assay [3]. For the compound `Cc1cc(-c2cnc(NCc3c(F)ccc4c3CCO4)n3cc(CO)nc23)n(C)n1` [Example 1, (8-(1,3-dimethyl-1H-pyrazol-5-yl)-5-(((5-fluoro-2,3-dihydrobenzofuran-4-yl)methyl)amino)imidazo[1,2-c]pyrimidin-2-yl)methanol], the IC50 in assay [1] and in assay [2] was less than 250 nM throughout. `Cc1cc(S(C)(=O)=O)ccc1-c1cnc(NCc2c(F)ccc3c2CCO3)n2cc(CO)nc12` [Example 2, (5-(((5-fluoro-2,3-dihydrobenzofuran-4-yl)methyl)amino)-8-(2-methyl-4-(methylsulfonyl)phenyl)imidazo[1,2-c]pyrimidin-2-yl)methanol]: the IC50 was less than 250 nM in assay [1] and 500 to 5000 nM in assay [2]. Regarding `Cc1ncccc1-c1cnc(NCc2c(F)ccc3c2CCO3)n2cc(CO)nc12` [Example 3, (5-(((5-fluoro-2,3-dihydrobenzofuran-4-yl)methyl)amino)-8-(2-methylpyridin-3-yl)imidazo[1,2-c]pyrimidin-2-yl)methanol], the IC50 in assay [1] fell in the range of 500 to 2000 nM; in assay [2], 500 to 5000 nM. For `OCc1cn2c(NCc3c(F)ccc4c3CCO4)ncc(-c3ccc(C4CC4)nc3)c2n1` [Example 4, (8-(6-cyclopropylpyridin-3-yl)-5-(((5-fluoro-2,3-dihydrobenzofuran-4-yl)methyl)amino)imidazo[1,2-c]pyrimidin-2-yl)methanol], the IC50 was in the range of 500 to 2000 nM in assay [1] and 500 to 5000 nM in assay [2].

For `COc1ccc(-c2cnc(NCc3c(F)ccc4c3CCO4)n3cc(CO)nc23)c(C)n1` [Example 5, (5-(((5-fluoro-2,3-dihydrobenzofuran-4-yl)methyl)amino)-8-(6-methoxy-2-methylpyridin-3-yl)imidazo[1,2-c]pyrimidin-2-yl)methanol], the IC50 in assay [1] lay in the range of 500 to 2000 nM; in assay [2] it was 250 to 500 nM. `Cn1nccc1-c1cnc(NCc2c(F)ccc3c2CCO3)n2cc(CO)nc12` [Example 6, (5-(((5-fluoro-2,3-dihydrobenzofuran-4-yl)methyl)amino)-8-(1-methyl-1H-pyrazol-5-yl)imidazo[1,2-c]pyrimidin-2-yl)methanol]: the IC50 was 250 to 500 nM in assay [1] and less than 250 nM in assay [3]. For `Cc1cc(-c2cnc(NCc3c(F)ccc4c3CCO4)n3cc(C(O)c4ccccc4)nc23)n(C)n1` (centres unmarked) [Example 8], in assay [1], the IC50 was 250 to 500 nM. With `NCc1cn2c(NCc3c(F)ccc4c3CCO4)ncc(-c3cccc(F)c3)c2n1` [Example 14, 2-(aminomethyl)-N-((5-fluoro-2,3-dihydrobenzofuran-4-yl)methyl)-8-(3-fluorophenyl)imidazo[1,2-c]pyrimidin-5-amine], the figures for the IC50 in assay [1] and in assay [2] were 250 to 500 nM and 500 to 5000 nM, respectively. As to `CNCc1cn2c(NCc3c(F)ccc4c3CCO4)ncc(-c3cc(C)nn3C)c2n1` [Example 25, 8-(1,3-dimethyl-1H-pyrazol-5-yl)-N-((5-fluoro-2,3-dihydrobenzofuran-4-yl)methyl)-2-((methylamino)methyl)imidazo[1,2-c]pyrimidin-5-amine], the IC50 in assay [1] and in assay [2] was 250 to 500 nM each time. `Cc1cc(-c2cnc(NCc3c(F)ccc4c3CCO4)n3cc(CN(C)C)nc23)n(C)n1` [Example 26, 8-(1,3-dimethyl-1H-pyrazol-5-yl)-2-((dimethylamino)methyl)-N-((5-fluoro-2,3-dihydrobenzofuran-4-yl)methyl)imidazo[1,2-c]pyrimidin-5-amine]: the IC50 in assay [1] lay in the range of 500 to 2000 nM. Same read-out and setting: in the case of `Cc1cc(-c2cnc(NCc3c(F)ccc4c3CCO4)n3cc(C(N)C(F)(F)F)nc23)n(C)n1` (centres unmarked) [Example 42, 2-(1-amino-2,2,2-trifluoroethyl)-8-(1,3-dimethyl-1H-pyrazol-5-yl)-N-((5-fluoro-2,3-dihydrobenzofuran-4-yl)methyl)imidazo[1,2-c]pyrimidin-5-amine] it was 250 to 500 nM; in that of `Cc1cc(-c2cnc(NCc3c(F)ccc4c3CCO4)n3cc(-c4nn[nH]n4)nc23)n(C)n1` [Example 43, 8-(1,3-dimethyl-1H-pyrazol-5-yl)-N-((5-fluoro-2,3-dihydrobenzofuran-4-yl)methyl)-2-(2H-tetrazol-5-yl)imidazo[1,2-c]pyrimidin-5-amine], less than 250 nM.
